# Like-named read-outs stand apart in the source and are kept apart here.
# Legend:
# [1] = tested on: Ablagerungen in Aortasegmenten; assay: Calcification (deposit formation) of rat aorta segments in diffusion chambers implanted into the abdominal cavity of rats; histology and morphometry; format: in vivo, Ratten (Sprague-Dawley-Ratten); settings: for Dicke (Ablagerungsschichtdicke): 2,1 mmol Citrat per day orally in two doses, maximal deposit layer thickness by ocular micrometer, Kontrolle 55; for Dicke (Ablagerungsschichtdicke) / Minimierung der Flächenausdehnung der Ablagerungen im Vergleich zur Kontrolle / Fläche (Flächenausdehnung der Ablagerungen): 22 days; for Minimierung der Flächenausdehnung der Ablagerungen im Vergleich zur Kontrolle / Fläche (Flächenausdehnung der Ablagerungen): 2,1 mmol Citrat per day orally; for Fläche (Flächenausdehnung der Ablagerungen): Kontrolle 240; for histologisch-lichtmikroskopische Untersuchung der Querschnitte der Aortaabschnitte: Kontrolle: pronounced deposit formation; for Abnahme der Ablagerungsschichtdicke im Vergleich zu der Kontrolle (Faktor): factor versus Kontrolle (55 µm); for relative Volumina %: relative to Kontrolle = 100; for relative Volumina: thickness multiplied by area, Kontrolle 13200
# Source text: (§1) Pentobarbital betäubten Ratten (Sprague-Dawley-Ratten) wurde die Aorta aseptisch entnommen, in acht 5 mm große Segmente geschnitten und in sterile Diffusionskammern (Fa. Millipore GmbH, Eschborn), mit einem Durchmesser von 14 mm und einer Porengröße von 0,22 µm fixiert. Jeweils 2 Kammern wurden in die Bauchhöhle einer Ratte implantiert. Die Versuchsgruppen bestanden aus mindestens 7 Ratten.
# Folgende wäßrige Citrat-Lösungen wurden oral appliziert:
# (§2) Jedem Versuchstier wurden pro Tag 2,1 mmol Citrat oral in zwei gleichen Dosen appliziert, nach 22 Tagen die beiden Diffusionskammern entnommen und die Aorta-Abschnitte licht-, elektronenmikroskopisch, röntgenspektrographisch sowie elementar-analytisch untersucht. Zur histologischen Untersuchung wurden die Gewebeabschnitte in 8% Formalin fixiert, die Aortaabschnitte für die lichtmikroskopischen Untersuchung nach Kossa mit Hämatoxylin und Eosin gefärbt sowie diejenigen zur elektronenmikroskopischen Untersuchung in 2,5% Glutaraldehyd und anschließend in 1% Osmiumtetroxyd fixiert. Die Bestimmung der maximalen Ablagerungsschichtdicke erfolgte mittels Okularmikrometer und die Flächenausdehnung der Ablagerungsschicht der jeweiligen Aortasegmente wurden nach bekannten Methoden ermittelt.
# Aortasegmenten = assay: Mineral content and calcium/phosphorus quotient in the implanted aorta segments; format: in vivo, Ratten (Sprague-Dawley-Ratten); settings: for Calcium, Konzentration in Aortasegmenten: mean (range of measured values), Kontrolle 4,77; for Phosphor, Konzentration in Aortasegmenten / Magnesium, Konzentration in Aortasegmenten: mean (range); for Phosphor, Konzentration in Aortasegmenten: Kontrolle 4,47; for Magnesium, Konzentration in Aortasegmenten: Kontrolle 0,20
# Source text: as §1, §2
# [2] = set-up: species or system Ratten (Sprague-Dawley-Ratten); settings: rat, in vivo
# Source text: as §1, §2
# Das bedeutet, daß die Verstoffwechslung erhöhter Gaben von KNC, KC oder NC im Organismus nicht zu einer Veränderung der Serumzusammensetzung führt und daß daher die Nierenfiltration aufgrund der im Normbereich befindlichen Fraktionen der ultrafiltrierbaren und ionablen Fraktion des Serums nicht beeinträchtigt wird.
# Um die Wirkung der Applikationen von KNC, NC und KC auf den Hormonhaushalt zu überprüfen, wurde die Konzentration von PTH im Blut analysiert.
# [3] = set-up: species or system Ratten (Sprague-Dawley-Ratten); settings: rat, in vivo; remark: listed apart in the source
# Source text: as §1, §2
# Der Umstand, daß Alkalicitrate ohne Nebenwirkungen im Gegensatz zu bekannten o.g. Medikamente auf die Nierentätigkeit ist, ergibt sich auch aus der Bestimmung der Urinzusammensetzung [Tabelle (2B)). Die Konzentrationen von beispielsweise cAMP unterschieden sich nur unwesentlich von denen der Kontrolle.
Substance,Dicke (Ablagerungsschichtdicke) [1],Minimierung der Flächenausdehnung der Ablagerungen im Vergleich zur Kontrolle [1],Fläche (Flächenausdehnung der Ablagerungen) [1],histologisch-lichtmikroskopische Untersuchung der Querschnitte der Aortaabschnitte [1],relative Volumina % [1],relative Volumina [1],"Calcium, Konzentration in Aortasegmenten (Aortasegmenten)","Phosphor, Konzentration in Aortasegmenten (Aortasegmenten)",Calcium [2],Calcium/ Protein [2],Citrat [2],Ges.CO2 [2],Ges.Protein [2],Kreatinin [2],PTH [2],"arteriell-venöse pH-Wert, Konzentrationen an Gesamt-CO₂, Citrat, Magnesium und Phosphor im Blut [2]",pH [2],Citrat [3],Magnesium [3],cAMP [3],also measured
K₆Na₆H₃(C₆H₅O₇)₅ x 2 H₂O [KNC],23 µm,54%,131,"gleichmäßig gestaltete (ohne besondere Erhebungen), stark verringerte Plaqueschicht",23%,3013,"4,93 (3,40-7,16) mmol/g","6,80 (2,09-10,51)^1 mmol/g","2,27 (2,22-2,33)^1 mmol/l",45 (40-47) µmol/g,164 (55-244) µmol/l,"40,9 (36,9-45,1) mmol/g","50,7 (47,5-57,0)^2 g/l","30,9 (15,9-35,4)^2 µmol/l",200-553,nicht verändert,"7,39 (7,34-7,43)","20,0 (13,2-30,3)^1 µmol/g","3,7 (1,4-8,0)^3 µmol/mg","11,6 (9,0-15,9) nmol/mg","Abnahme der Ablagerungsschichtdicke im Vergleich zu der Kontrolle (Faktor) [1]: 2,4; Ablagerungsdicke im Gegensatz zur Kontrolle ([1]; thickness as percent of Kontrolle): < 55%; Magnesium in Aortasegmenten, Vergleich der Gruppen (Aortasegmenten; in words): höchsten Magnesiumanstieg; PTH-Level im Blut, Unterschied zur Kontrolle [2]: keine Unterschiede"
K₃C₆H₅O₇ x 1 H₂O [KC],33 µm,41%,98,gleichmäßig verteilte ohne besondere Erhebungen gestaltete Ablagerungsschicht,25%,3234,"5,09 (3,15-10,81) mmol/g","7,66 (2,97-17,74) mmol/g","2,27 (2,20-2,43)^1 mmol/l",44 (42-46) µmol/g,163 (96-248) µmol/l,"45,0 (39,2-50,8) mmol/g","51,0 (48,3-53,3)^2 g/l","31,8 (25,6-39,8) µmol/l",200-468,nicht verändert,"7,39 (7,31-7,45)","22,0 (11,3-25,0)^2 µmol/g","3,4 (1,8-9,1)^3 µmol/mg","12,9 (9,9-16,0) nmol/mg","Magnesium, Konzentration in Aortasegmenten (Aortasegmenten): 0,28 (0,20-0,43)^2 mmol/g"
Na₃C₆H₅O₇ x 2 H₂O [NC],,,159,gleichmäßig verteilte ohne besondere Erhebungen gestaltete Ablagerungsschicht,31%,4134,"4,20 (2,61-10,90) mmol/g","6,35 (3,34-14,60) mmol/g","2,20 (2,04-2,30)^3 mmol/l",46 (42-50) µmol/g,171 (140-212) µmol/l,"40,9 (29,6-51,8) mmol/g","48,3 (44,8-55,3)^2 g/l","31,8 (30,1-33,6)^1 µmol/l",200-415,nicht verändert,"7,43 (7,35-7,49)","19,7 (15,8-30,4)^2 µmol/g","4,0 (2,6-8,0)^3 µmol/mg","13,5 (12,1-14,2) nmol/mg","Abnahme der Ablagerungsschichtdicke im Vergleich zu der Kontrolle (Faktor) [1]: > 2; Magnesium, Konzentration in Aortasegmenten (Aortasegmenten): 0,28 (0,20-0,33)^1 mmol/g"
